According to ChEMBL document CHEMBL3352395, “Quantitative structure-activity relationship of antifungal activity of rosin derivatives” (2015):

Columns and labels:
Trametes versicolor = assay: Antifungal activity against Trametes versicolor after 3 to 5 days by paper disc method relative to 1227; type: functional
Gloeophyllum trabeum = assay: Antifungal activity against Gloeophyllum trabeum after 3 to 5 days by paper disc method relative to 1227; type: functional

| Compound | Ratio (Trametes versicolor) | inhibition zone (IZ) (Trametes versicolor) [mm] | Ratio (Gloeophyllum trabeum) | inhibition zone (IZ) (Gloeophyllum trabeum) [mm] | log(ratio) (Trametes versicolor) | log(ratio) (Gloeophyllum trabeum) |
| --- | --- | --- | --- | --- | --- | --- |
| CC[N+](CC)(CC)CC(O)COC(=O)C1C2C[C@H]3C(C=C2C(C)C)(CC[C@@H]2[C@]3(C)CCC[C@@]2(C)C(=O)OCC(O)C[N+](CC)(CC)CC)C1C(=O)OCC(O)C[N+](CC)(CC)CC.[Cl-].[Cl-].[Cl-] (stereo not given in full) | 86.7 | 26 | 95.5 | 21 |  |  |
| CC(C)C1=CC23CC[C@@H]4[C@](C)(CCC[C@@]4(C)C(=O)OCC(O)C[N+](C)(C)C)[C@H]2CC1CC3C(=O)OCC(O)C[N+](C)(C)C (stereo not given in full) | 70 |  | 81.82 |  | 1.8451 | 1.9128 |
| CC(C)C1=CC23CC[C@@H]4[C@](C)(CCC[C@@]4(C)C(=O)OCC(O)C[N+](C)(C)CC4CO4)[C@H]2CC1CC3C(=O)OCC(O)C[N+](C)(C)CC1CO1 (stereo not given in full) | 60 |  | 77.27 |  | 1.7782 | 1.888 |
| CC[N+](CC)(CC)CC(O)COC(=O)[C@]1(C)CCC[C@]2(C)c3ccc(C(C)C)cc3CC[C@@H]12 (stereo not given in full) | 56.67 |  | 81.82 |  | 1.7533 | 1.9128 |
| CC(C)C1=CC23CC[C@@H]4[C@](C)(CCC[C@@]4(C)C(=O)OCC(O)CN(C)C)[C@H]2CC1CC3C(=O)OCC(O)CN(C)C (stereo not given in full) | 46.67 |  | 59.09 |  | 1.669 | 1.7715 |
| CC(C)c1ccc2c(c1)CC[C@H]1[C@](C)(C(=O)OCC(O)CCl)CCC[C@]21C (stereo not given in full) | 30 |  | 40.91 |  | 1.4771 | 1.6118 |
| CC(C)C1=CC2=CC[C@@H]3[C@](C)(CCC[C@@]3(C)C(=O)OCC(O)CCl)[C@H]2CC1 (stereo not given in full) | 26.67 |  | 36.36 |  | 1.426 | 1.5607 |
| CCOC(=O)[C@]1(C)CCC[C@@]2(C)[C@H]1CC=C1C=C(C(C)C)CC[C@@H]12 | 26.67 |  | 36.36 |  | 1.426 | 1.5607 |
| CC(C)C1CC[C@H]2C(CC[C@@H]3[C@]2(C)CCC[C@@]3(C)C(=O)OCC(O)C[N+](C)(C)C)C1 (stereo not given in full) | 53.33 |  | 59.09 |  | 1.727 | 1.7715 |
| CC(C)c1ccc2c(c1)CC[C@H]1[C@](C)(C(=O)OCC(O)C[N+](C)(C)CC3CO3)CCC[C@]21C (stereo not given in full) | 50 |  | 77.27 |  | 1.699 | 1.888 |
| CC(C)C1CC[C@H]2C(CC[C@@H]3[C@]2(C)CCC[C@@]3(C)C(=O)OCC(O)CCl)C1 (stereo not given in full) | 26.67 |  | 36.36 |  | 1.426 | 1.5607 |
| CC(C)C1=CC23CC[C@@H]4[C@](C)(CCC[C@@]4(C)C(=O)O)[C@H]2CC1CC3C(=O)O (stereo not given in full) | 26.67 |  | 36.36 |  | 1.426 | 1.5607 |
| CC(C)C1=CC2=CC[C@@H]3[C@](C)(CCC[C@@]3(C)C(=O)OCC(O)C[N+](C)(C)CC[N+](C)(C)CC(O)COC(=O)[C@]3(C)CCC[C@@]4(C)[C@H]3CC=C3C=C(C(C)C)CC[C@@H]34)[C@H]2CC1 (stereo not given in full) | 56.67 |  | 72.73 |  | 1.7533 | 1.8617 |
| CC(C)C1CC[C@H]2C(CC[C@@H]3[C@]2(C)CCC[C@@]3(C)C(=O)O)C1 (stereo not given in full) | 26.67 |  | 36.36 |  | 1.426 | 1.5607 |
| CC[N+](CC)(CC(O)COC(=O)[C@]1(C)CCC[C@@]2(C)[C@H]1CCC1CC(C(C)C)CC[C@@H]12)CC1CO1 (stereo not given in full) | 40 |  | 59.09 |  | 1.6021 | 1.7715 |
| CC(C)c1ccc2c(c1)CC[C@H]1[C@](C)(C(=O)OCC(O)C[N+](C)(C)C)CCC[C@]21C (stereo not given in full) | 60 |  | 81.82 |  | 1.7782 | 1.9128 |
| CC(C)c1ccc2c(c1)CC[C@H]1[C@](C)(C(=O)OCC(O)CN(C)C)CCC[C@]21C (stereo not given in full) | 43.33 |  | 68.18 |  | 1.6368 | 1.8337 |
| CC(C)C1=CC2=CC[C@@H]3[C@](C)(CCC[C@@]3(C)C(=O)OCC(O)C[N+](C)(C)CC3CO3)[C@H]2CC1 (stereo not given in full) | 46.67 |  | 63.64 |  | 1.669 | 1.8037 |
| CC(C)C1=CC2=CC[C@@H]3[C@](C)(CCC[C@@]3(C)C(=O)O)[C@H]2CC1 [ABIETIC ACID] | 26.67 |  | 36.36 |  | 1.426 | 1.5607 |
| CC[N+](CC)(CC)CC(O)COC(=O)C1CC2C[C@H]3C1(C=C2C(C)C)CC[C@@H]1[C@]3(C)CCC[C@@]1(C)C(=O)OCC(O)C[N+](CC)(CC)CC (stereo not given in full) | 66.67 |  | 77.27 |  | 1.8239 | 1.888 |
| CC(C)c1ccc2c(c1)CC[C@H]1[C@](C)(C(=O)O)CCC[C@]21C [DEHYDROABIETIC ACID] | 30 |  | 40.91 |  | 1.4771 | 1.6118 |
| CCN(CC)CC(O)COC(=O)[C@]1(C)CCC[C@@]2(C)[C@H]1CCC1CC(C(C)C)CC[C@@H]12 (stereo not given in full) | 33.33 |  | 50 |  | 1.5229 | 1.699 |
| CC[N+](CC)(CC(O)COC(=O)C1CC2C[C@H]3C1(C=C2C(C)C)CC[C@@H]1[C@]3(C)CCC[C@@]1(C)C(=O)OCC(O)C[N+](CC)(CC)CC1CO1)CC1CO1 (stereo not given in full) | 63.33 |  | 77.27 |  | 1.8016 | 1.888 |
| CC[N+](CC)(CC)CC(O)COC(=O)[C@]1(C)CCC[C@@]2(C)[C@H]1CCC1CC(C(C)C)CC[C@@H]12 (stereo not given in full) | 56.67 |  | 59.09 |  | 1.7533 | 1.7715 |
| CC(C)C1=CC23CC[C@@H]4[C@](C)(CCC[C@@]4(C)C(=O)OCC(O)CCl)[C@H]2CC1CC3C(=O)OCC(O)CCl (stereo not given in full) | 26.67 |  | 36.36 |  | 1.426 | 1.5607 |
